The source of these data is US20190111107A1, “METHODS FOR MODULATING INTESTINAL MICROBIOTA” (DEFENSIN THERAPEUTICS APS, priority 2016, published 2019).

Entries after “also recorded” stand apart in the source; their conditions may differ. Positions of bridges follow the written chain, without caps; N, C: chain ends. No end group written: not given here.

One series deals with mice fed a high fat diet. In words: Prophylactic treatment with defensins in mice fed a high fat diet: weight, lean/fat mass, glucose homeostasis. It is filed as in vivo, C57/BL/6J mice. Particulars: for weight gain compared with HFD reference group: 10 week study, defensin in HFD, 1,2mg hBD2 per kg mouse per day, HD5 equimolar; for visceral fat (eWAT) compared with HFD group / liver weight: at termination; for liver weight: vs HFD and LFD groups; for glucose-stimulated insulin secretion compared with HFD control mice: during the glucose challenge; for Glucose Tolerance test compared with HFD group: oral glucose tolerance test; for HOMA-IR index compared with HFD group: week 9.

The test system of another series is diet-induced obese mice. In words: Interventional treatment with defensins in diet-induced obese mice: weight, fat percentage, glucose homeostasis. It is filed as in vivo, C57/BL/6J mice. Conditions: for fat percentage / change in fat percentage compared with HFD control: 4 weeks after dietary intervention; for Glucose Tolerance Test after start of intervention: OGTT repeated biweekly from week 13-0; for Insulin Tolerance Test: insulin sensitivity compared with HFD control group: week 9, p<0.05. An excerpt: FIG. 1B. Schematic outline of the experimental set up for investigating the effects of mammalian alfa and/or beta defensins on mice metabolism. At week −1, the C57/BL/6J mice arrived. At week 0 feces was collected. During run-in between week 0 and week 12 the mice were fed a high fat diet. At week 12 the mice were clinically examined by magnetic resonance scan to estimate fat distribution, feces was collected and oral glucose tolerance test (OGTT) and glucose-stimulated insulin secretion (GSIS) performed. At week 13-0 the mice were divided in groups and cages with 4 mice percage and 3 cages per group. At week 0, 12 and 13-10, the microbiome of the faeces was analysed. At week 13-2, 13-4, 13-6, 13-8 and 13-10 the mice were scanned and blood glucose and insulin levels were measured. At week 13-9, insulin tolerance test (ITT) was conducted. At week 13-10 (termination), several analyses were conducted, in particular the mice were weighed and scanned, and plasma composition and microbiota composition of colon, cecum and small intestine were assessed. In addition, iWAT, eWAT and liver weight were measured.
Mice and diets. The experiment elucidates the effect of hBD-2 and HD5 in the treatment of metabolic syndrome (MetS) in diet-induced obese mice. A run-in period of 13 weeks where mice were fed a very HFD (60% energy from fat) preceded the intervention. Only mice meeting the criteria of a minimum of 12 gram weight gain (approximately 50% of initial bodyweight) during the run-in period were included in the final analyses. […] They were exposed to all experimental tests, but excluded from the analyses.
Treatment regimen (FIG. 1B). Before the intervention all mice were MR scanned and an OGTT was performed. Cages of mice were allocated to experimental groups based on their fat mass. All subsequent measures were paired with data from the same mouse before the intervention.
A LFD (low fat diet) reference group was running in parallel. As controls for the intervention 2 additional groups were included: 1 very HFD and 1 LFD. Experimental mice stayed on the very HFD during the intervention. The mice were on the experimental diet for 10 weeks. They were co-housed throughout the experiment, 4 mice per cage, 3 cages per group. All tests ran over 3 days, 1 cage per group per day.

A short description of series [1]: Pharmacokinetic study of hBD-2 after single oral gavage. It is filed as in vivo, female NMRI mice. The protocol: FIG. 28. Pharmacokinetic data following oral administration of 4 mg/kg hBD-2 to female NMRI mice. […] The results are given as group mean +/−SEM.
Pharmacokinetic study to determine oral bioavailability and establish pharmacokinetic profile of hBD-2 following single oral gavage of 4 mg/kg administration to NMRI mice.
Treatment regimen: 21 female NMRI mice were dosed by oral gavage 5 ml/kg using a gavage tube and a 1 ml syringe according to the individual body weight obtained on the day of dosing. Urine was strived sampled at random time points by gently massaging the inguinal area of the abdomen. The first blood sample was taken using a submandibular sampling method. The second blood sample was collected from Isoflurane anaesthetised mice. Intestinal samples were taken after euthanasia. The abdomen of each mouse was opened and three sections (jejunum, duodenum, and colon) of the intestines were sampled.

Series [2] has as its system Dextran Sodium Sulphate (DSS) induced colitis. Kind of series: Acute 10-day Dextran Sodium Sulphate (DSS) induced colitis model, hBD-2-albumin fusion C-terminal. It is filed as in vivo, mice. Particulars: active control. How it is done:
To determine and assess the anti-inflammatory effect of “hBD-2-albumin fusion C-terminal” in an acute 10-day Dextran Sodium Sulphate (DSS) induced colitis model in mice.
Treatment regimen: “hBD-2-albumin C-terminal” was administered intravenously via the tail vein or subcutaneously with the use of a sterile 25G needle in a dosing volume of 10 ml/kg body weight. The animals received 1 dose daily for 10 […] days. The active control Prednisolone (Pred) was given orally by gavage at a dose of 1 mg/kg in a dosing volume of 10 ml/kg body weight OD.

Another series relates to isolated hepatocytes. Conditions: Liu et al. (2008); cited from earlier work.
For the next series, the system named is intestinal microbiota. In words: Longitudinal 16S characterization of intestinal microbiota under prophylactic defensin treatment. It is filed as in vivo, mice. The text has this: FIG. 21A and 21B. The figures illustrate changes from week 1 (Wk1) to week 10 (Wk10) for the four treatments in Example 1: High fat diet with HD5-HF HD5; high fat diet with hBD2−HD hBD2; High fat diet—no treatment: HF; Low fat diet: LF. Weighted unifrac analysis of microbiota at week 1 (21A) and week 10 (21 B) i.e. relative abundance of bacterial species. […] Abbreviations: Wk 1—week 1; W10—week 10.
FIG. 21C. Illustration of the species of microbiota contributing to the change. […] Allobaculum is a short chain fatty acid producing species. Lactobacillus is a bacteria with anti-inflammatory properties.
Microbial analyses were carried out to study the microbiota of the intestine. Longitudinal 16S characterization was conducted on 4 paired samples from 60 mice, 240 samples in total. Each mouse was sampled prior to diet change, 1 week post diet change, 4 weeks post diet change and at termination, thus ensuring a thorough characterization of the faecal microbiota as a result of defensin treatment.

Method for mice fed a high fat diet: Schematic outline of the experimental set up for investigating the effects of mammalian alfa and/or beta defensins on mice metabolism. At week −1, the C57/BL/6J mice were divided in groups and cages, so that there were 3 mice per cage and cages per group. Between week −1 and 0, the mice were clinically examined by magnetic resonance scan to estimate fat distribution. […] At week 4, in addition to analysis of the microbiota, the mice were scanned and blood glucose and insulin levels were measured. […] At week 7, insulin tolerance test (ITT) was conducted. At week 8, oral glucose tolerance test (OGTT) and glucose-stimulated insulin secretion (GSIS) were conducted. At week 9 (termination), several analyses were conducted, in particular the mice were weighed and scanned, and plasma composition and microbiota composition of colon, cecum and small intestine were assessed.
Mice: Mice were housed in trios, 4 cages per group. Feed intake was registered daily just before lights were turned off (6 pm). Individual mice were subjected to experimental procedures in altered order both group and cage wise. Mice were kept at room temperature under a 12-hour light/dark cycle at SPF standard conditions.
Diets: For dosing, the average weight was estimated to be 25 grams per mouse. They eat approximately 3 grams of feed per mouse per day.
Treatment regime (FIG. 1A): Mice were fed either a high fat diet (HFD) or a low fat (LF) control diet. The HFD contains 4 subgroups; 1 hBD2, 1 HD5, 1 hBD2/HD5 and 1 standard HFD without supplementation of defensins. Defensin concentration is 1,2mg hBD2 per kg mouse per day. HD5 is given in equimolar concentration to hBD2.

With “GIGDPVTCLKSGAICHPVFCPRRYKQIGTCGLPGTKCCKKP (disulfide 8-37, 15-30, 20-38 (inferred)) [hBD-2, human beta defensin 2]”, in the series on mice fed a high fat diet, the “weight gain compared with HFD reference group” value was “gained significantly less weight than the HFD reference group”, the “visceral fat (eWAT) compared with HFD group” value is listed as “significantly less visceral fat (eWAT) than the HFD group”, the liver weight result is listed as “no statistical difference between the three groups in terms of liver weight” and the “glucose-stimulated insulin secretion compared with HFD control mice” value is given as “glucose stimulated insulin response during the glucose challenge was improved”. The “HOMA-IR index compared with HFD group” value with mice fed a high fat diet is reported as “statistically significantly lower”. For the same molecule, in the series on mice fed a high fat diet (60% HFD), the “share of defensin-fed mice with a Body Fat Percent resembling LFD reference mice” value turned out to be 50% and the “visceral fat mass of the best protected mice compared with LFD reference mice” value is on record as “same or smaller visceral fat mass than LFD reference mic”. The “lean mass gained at the end of the study compared with HFD group” value with mice fed a high fat diet (HFD plus hBD-2 vs HFD) is given as “gained the same amount of lean mass”. Also, the “fat mass at the end of the study compared to the LFD group” value with mice fed a high fat diet (HFD plus hBD-2 vs LFD, p=0.25) is “trended towards increased fat mass compared to the LFD group”. Besides, the “Glucose Stimulated Insulin Secretion: insulin concentration compared with LFD group” value with mice fed a high fat diet (during the GTT, week 7) is “higher but not significantly different insulin concentration than the LFD group; also recorded: higher but not significantly different insulin concentration from the LFD group”. For the same molecule, the “amount of fat mass gained by the HFD group compared to the HFD plus hBD-2 group” value in the series on mice fed a high fat diet (first analysis, p=0.005) came out at 2 times. Moreover, in the series with mice fed a high fat diet (mouse, in vivo), the “Insulin Tolerance test: compared with LFD reference group” value is “no statistical significant difference between the LFD reference group and the HFD plus hBD-2 group”; the “Insulin Tolerance test: insulin sensitivity compared with HFD group” value is “significantly more sensitive to insulin than the HFD group”. The “Glucose Tolerance test compared with HFD group” value with mice fed a high fat diet (week 7) is “slightly prolonged glucose clearance but reached significantly lower glucose levels than the HFD group”. Moreover, the “Glucose Tolerance test compared with HFD group” value in the series on mice fed a high fat diet (week 7, listed as hBD2) is recorded as “Glucose tolerance was markedly improved compared to HFD control mice”. The “Five Hour Fasting insulin: HFD group compared with HFD plus hBD-2 group” value with mice fed a high fat diet (p=0.057) is listed as “borderline significantly higher fasting insulin than the HFD plus hBD-2 group”. Also, the “Five Hour Fasting insulin: LFD compared with HFD plus hBD-2 group” value in the series with mice fed a high fat diet (p=0.17) is “no significant difference between the LFD and HFD plus hBD-2 groups”. For the same molecule, in the series with mice fed a high fat diet (re-analysis, p=0.005), the “amount of fat mass in percent of total body weight gained by the HFD group compared to the HFD plus hBD-2 group” value is “two times”. Further, in the series on diet-induced obese mice, the “fat percentage / change in fat percentage compared with HFD control” value is “significantly smaller”, the “Glucose Tolerance Test after start of intervention” value is reported as “smaller peak in blood glucose as well as a faster clearance of glucose already after 2 weeks” and the “Insulin Tolerance Test: insulin sensitivity compared with HFD control group” value is “more insulin sensitive compared to the HFD control group”. The “obese and glucose intolerant mice that significantly improved their glucose tolerance” value in the series with diet-induced obese mice (following 2 weeks of intervention) is listed as 7/8. Moreover, the “visceral fat (eWAT) at termination compared with HFD control” value in the series on diet-induced obese mice (mouse, in vivo) is “no significant difference in visceral fat (eWAT) between the HFD fed groups”. Moreover, in the series with diet-induced obese mice (p=0.07), the “weight gain the first 4 weeks post dietary intervention compared with standard HFD group” value is reported as “tended to gain less weight the first 4 weeks post dietary intervention, although not significantly”. In addition, in the series on diet-induced obese mice (p=0.82), the “weight gain from week 4 to the end of the study period compared with standard HFD group” value is listed as “gained similar weight as the standard HFD group”. The “share of the group with a smaller fat percentage than before the intervention” value in the series on diet-induced obese mice (weeks 4 post dietary intervention) is around 75%. The “systemic availability after oral dosing” value in series [1] (4 mg/kg oral, mice) is reported as “not systemically available”. In addition, the “time hBD2 remains detectable in the colon content after administration” value in series [1] (oral 4 mg/kg) is reported as “up to 360 minutes”.

For `C[C@]12C=CC(=O)C=C1CC[C@@H]1[C@@H]2[C@@H](O)C[C@@]2(C)[C@H]1CC[C@]2(O)C(=O)CO` [Prednisolon, Prednisolone], the DAI entry in series [2] (1 mg/kg orally by gavage daily, p<0.05) is recorded as “significant inhibition of the DAI on day 9”. In addition, the “histological injury in the proximal part of the colon” value in series [2] (1 mg/kg orally daily) is “failed to significantly reduce histological injury in the proximal part of the colon”. Further, in series [2] (1 mg/kg orally daily, p<0.01), the “histological injury in the distal colon” value is “did reduce the injury in the distal colon”.

“human neutrophil peptide 2 (CYCRIPACIAGERRYGTCIYQGRLWAFCC; ends and bridges not checked; cysteine pairing not given here; UniProt P59665 66-94, looked up) [HNP-2, α-defensin produced by leucocytes]”: the “inhibition of glycogenolysis and gluconeogenesis” value in the series with isolated hepatocytes was “able to inhibit glycogenolysis and gluconeogenesis in isolated hepatocytes”.

On to human neutrophil peptide 1 [HNP-1], for which the “inhibition of glycogenolysis and gluconeogenesis” value in the series on isolated hepatocytes is “able to inhibit glycogenolysis and gluconeogenesis in isolated hepatocytes”.

Take “human intestinal alpha defensin 5 (ATCYCRTGRCATRESLSGVCEISGRLYRLCCR; listed as Homo sapiens) [HD5]”: in the series on mice fed a high fat diet, the “weight gain compared with HFD reference group” value is “gained less weight than HFD-fed control mice (FIG. 17A), although the effect was not statistically significant”; the “visceral fat (eWAT) compared with HFD group” value was “borderline less visceral fat”; the liver weight result is “No statistically significant difference with respect to liver weight”; the “glucose-stimulated insulin secretion compared with HFD control mice” value is listed as “no significant improvement”. Further, the “HOMA-IR index compared with HFD group” value in the series with mice fed a high fat diet is reported as “no significant improvement”. In the series on mice fed a high fat diet (mouse, in vivo), the “Insulin Tolerance test: insulin sensitivity compared with HFD group” value was “no significant improvement”, the “fat % compared with HFD-fed control mice” value is given as “borderline less fat %” and the “feed efficiency compared with HFD-fed control mice” value was “tendency towards lower feed efficiency”. In the series with mice fed a high fat diet (week 7), the “Glucose Tolerance test compared with HFD group” value is given as “no significant improvement”. The “microflora composition (weighted unifrac analysis) relative to LFD and non-treated HFD groups” value in the series with intestinal microbiota (after 10 weeks, oral HD5 in HFD) is reported as “gradually approached the bacterial flora of mice fed a LFD; also recorded: partial normalization of the microflora”. The “abundance of bacterial genera in the intestinal microbiota compared with non-treated HFD mice” value in the series with intestinal microbiota (at termination) was “increased abundance of Allobaculum and Lactobacillus and a decrease in abundance of Clostridium”. Further, in the series with diet-induced obese mice, the “fat percentage / change in fat percentage compared with HFD control” value is on record as “significantly lower fat percentage”, the “Glucose Tolerance Test after start of intervention” value is given as “improved over time” and the “Insulin Tolerance Test: insulin sensitivity compared with HFD control group” value was “more insulin sensitive than the HFD control”. Also, the “fat percentage of total body weight over time” value in the series with diet-induced obese mice (10 weeks intervention) was “tendency of decreasing fat percentage”. In addition, the “weight gain after dietary intervention compared with HFD control” value in the series on diet-induced obese mice (10 weeks on experimental diet) is on record as “gained significantly less weight than the HFD control”. Moreover, in the series on diet-induced obese mice (mouse, in vivo), the “visceral fat (eWAT) at termination compared with HFD control” value was “not significantly different” and the “weight of the liver at termination compared to the HFD control” value is recorded as “tended to be decreased”.
